# In publication PMC2670829 (BMC Pharmacology, 2009):
# Values joined by “and” are separate entries in the source; they are usually repeats but may differ in a detail not shown here. Equal entries are not always repeated. Where two headings read alike, the source gives them in different places. Marks after values point to notes of the source that are not given here.
# Key:
# [1] = tested on: subcutaneous Tsc2^-/- tumors (NTC/T2null cells); test: Subcutaneous Tsc2-/- tumor model in nude mice, atorvastatin, doxycycline and rapamycin study; settings: for Efficacy on tumor growth and survival, in words / Median survival: doxycycline 10 mg/kg IP 5 days per week, rapamycin 8 mg/kg IP 3 days per week; for Median survival: time to tumor volume ~3000 mm^3, atorvastatin 20 mg/kg IP, start at ~50 mm^3
# Experimental: (§1) Nude mice (strain CD-1nuBR, up to 6–8 weeks old) were obtained from Charles River Laboratories, Inc. (Wilmington, Massachusetts) and injected subcutaneously on the dorsal flank with 2.5 million NTC/T2null (Tsc2^-/-, Trp53^-/-) cells. As soon as tumors became visible, they were measured Monday through Friday using calipers. Tumor volumes were calculated using the formula: length × width × width × 0.5 [43]. All mice were euthanized once tumors reached ~3000 mm^3 in accordance with institutional animal care guidelines. Please note that survival analysis is done using time to tumor volume of ~3000 mm^3, because this is when animals are euthanized. […] Statistical comparison of tumor volume measurements between groups is done on the last day that relevant groups had at least four tumor measurements.
# A cohort of 48 CD-1 nude mice was injected with NTC/T2null (Tsc2^-/-, Trp53^-/-) cells.
# All drug treatments started when tumors reached a volume of ~50 mm^3 (day 1 of treatment), regardless of treatment schedule, and animals were euthanized when tumors reached a volume of ~3000 mm^3. If a volume of 40 mm^3 was reached on Thursday or Friday, treatment began that day. Otherwise, treatment was started on the day tumor volume was ≥50 mm^3.
# Mice being treated with doxycycline were treated daily Monday through Friday with 200 μl of a 1.5 mg/ml (10 mg/kg) IP injection. […] All drug doses were calculated based on an average weight of 30 g per mouse. […] Doxycycline powder was obtained from Sigma-Aldrich Co. (St. Louis, MO) and was diluted in sterile PBS.
# [2] = tested on: kidney cystadenomas in Tsc2^+/- mice; settings: cited from earlier work; for Percent decrease in tumor score per kidney with treatment / Tumor score per kidney (ave. ± Std. Err.): analysis at 12 months, ref Messina et al., 2007; for Tumor score per kidney (ave. ± Std. Err.): CCI-779 8 mg/kg per day, 5 days/week
# [3] = in words
# [4] = tested on: kidney cystadenomas in Tsc2^+/- mice; test: Kidney tumor (cystadenoma) score by quantitative histopathology in Tsc2+/- mice; assay type: in vivo, mouse; settings: for Tumor score per kidney (ave. ± Std. Err.): daily IP treatment at 6–7 and 12–13 months (rapamycin 8 mg/kg, IFN-g 20,000 IU), weekly rapamycin 16 mg/kg at 7–12 months
# Experimental: The Tsc2^+/- mouse is heterozygous for a deletion of exons 1–2 as previously described. The Tsc2^+/- cohort used in this experiment was obtained by crossing these Tsc2^+/- mice with wild-type C57BL/6 mice. In order to avoid bias due to strain variation, sibling littermates were used as controls. Tsc2^+/- mice were assigned to one of three cohorts: rapamycin 8 mg/kg IP, rapamycin 8 mg/kg plus IFN-g 20,000 units IP, and untreated. All mice receiving drug therapy were treated in three consecutive parts: In part one, mice were treated daily (5 days/week, Monday through Friday) for one month (6 months ≤ age < 7 months) with their assigned treatments by intraperitoneal injection (IP). In part two, all mice in both the rapamycin and rapamycin plus IFN-g cohorts stopped their assigned daily treatment and started a weekly 16 mg/kg maintenance dose of rapamycin for five months (7 months ≤ age < 12 months). In the final part, all mice restarted the same treatment they received from 6–7 months of age for one final month (see Table 1). The two month-long periods of daily rapamycin treatment before and after the maintenance treatment were included so that we can compare the results of this study with our previous preclinical studies that also include a total of two months of daily treatment without the weekly maintenance treatment phase. All mice were euthanized at 13 months of age according to institutional animal care guidelines. We evaluated kidney disease at 13 months in this experiment instead of 12 months in prior studies because kidney disease severity is likely to be higher in older mice, and we reasoned that this may allow us to better detect small differences between treatment groups. The severity of kidney disease was determined in all animals using quantitative histopathology as described below.
# Rapamycin powder was obtained from LC Laboratories (Woburn, MA) and a 20 mg/ml stock of rapamycin was made in ethanol (stored at -20°C for up to one week). The stock solution was diluted to 1.2 mg/ml in vehicle (0.25% PEG, 0.25% Tween-80) for the 8 mg/kg dose and diluted to 2.4 mg/ml in vehicle for the 16 mg/kg dose. Murine IFN-g (R&D Systems, Minneapolis, MN) was diluted to 100,000 units/ml in sterile phosphate buffered saline (PBS) containing 0.1% mouse serum albumin (Sigma-Aldrich, Inc., St. Louis, MO) and stored at 4°C. […]
# For histological quantification of kidney cystadenomas, each kidney was fixed and sliced at 1 mm intervals. […] All slides were coded to keep scoring blinded, and all cystadenomas were counted, measured, and scored according to the scale shown in Table 2 by two blinded researchers (CW and AN). Cystadenomas that extended into more than one 1 mm kidney slice were counted only once and scored according to the maximum diameter. […]
# [5] = mouse, in vivo
# Experimental: Animal behavior and health were monitored daily, and animals were weighed at the start of the study and at the time of necropsy. […] All mice from rapamycin treated cohorts were euthanized 24 hours after the last rapamycin treatment upon reaching the endpoint tumor volume. Upon sacrifice, whole blood and tumor were harvested for drug level testing.
# [6] = no reference given; cited from earlier work
# in vivo = settings: mouse, intraperitoneal, 8 mg/kg
# [7] = tested on: subcutaneous Tsc2^-/- tumors (NTC/T2null cells); test: Subcutaneous Tsc2-/- tumor model in nude mice, sorafenib and rapamycin study; settings: rapamycin 8 mg/kg IP, sorafenib 60 mg/kg gavage, 5 days per week
# Experimental: as §1
# Two mice were excluded from the analyses. […] All drug doses were calculated based on an average weight of 30 g per mouse.
# [8] = mean ± standard error, rapamycin 8 mg/kg 3 days per week, atorvastatin 20 mg/kg, doxycycline 10 mg/kg 5 days per week, IP
# [9] = 8 mg/kg daily × 2 months, total 9.6 mg per mouse, ref Messina et al. 2007
compound,measurement,setting,value
CC(C)c1c(C(=O)Nc2ccccc2)c(-c2ccccc2)c(-c2ccc(F)cc2)n1CC[C@@H](O)C[C@@H](O)CC(=O)O [Atorvastatin],"Efficacy on tumor growth and survival, in words",[1]; atorvastatin 20 mg/kg,did not reduce tumor growth or improve survival as a single agent
same,"Day 26, average tumor volume",[1]; [8],1931 ± 298 mm^3
same,Median survival,[1],32.5 days
"CO[C@H]1C[C@@H]2CC[C@@H](C)[C@@](O)(O2)C(=O)C(=O)N2CCCC[C@H]2C(=O)O[C@H]([C@H](C)C[C@@H]2CC[C@@H](OC(=O)C(C)(CO)CO)[C@H](OC)C2)CC(=O)[C@H](C)/C=C(\C)[C@@H](O)[C@@H](OC)C(=O)[C@H](C)C[C@H](C)/C=C/C=C/C=C/1C [CCI-779, temsirolimus]",% Reduction in kidney tumors (kidney tumor number),"[2]; 4 mg/kg 3 times a week × 3 months, total 4.32 mg per mouse, ref Lee et al. 2005",84% and 83.6%**
same,% Reduction in kidney tumors (kidney tumor number),[2]; [9],64%
same,% Reduction in kidney tumors (kidney tumor score),[2]; [9],63%*
same,Percent decrease in tumor score per kidney with treatment,[2]; CCI-779 8 mg/kg per day at 6–8 months,39.7%
same,Percent decrease in tumor score per kidney with treatment,"[2]; CCI-779 8 mg/kg per day at 10–12 months, 8 mg/kg/day",64.4%
same,Tumor score per kidney (ave. ± Std. Err.),[2]; at 6–8 months,6.00 ± 1.01
same,Tumor score per kidney (ave. ± Std. Err.),[2]; at 10–12 months,3.54 ± 0.76
C[C@H]1c2cccc(O)c2C(=O)C2=C(O)[C@]3(O)C(=O)C(C(N)=O)=C(O)[C@@H](N(C)C)[C@@H]3[C@@H](O)[C@@H]21 [Doxycycline],Effect on the metabolism of rapamycin (rapamycin levels in combination cohorts),[3],did not significantly affect the metabolism of rapamycin
same,"Efficacy on tumor growth and survival, in words",[1]; atorvastatin 20 mg/kg,not effective as either a single agent or in combination with rapamycin
same,"Day 26, average tumor volume",[1]; [8],1749 ± 352 mm^3
same,Median survival,[1],28 days
CO[C@H]1C[C@@H]2CC[C@@H](C)[C@@](O)(O2)C(=O)C(=O)N2CCCC[C@H]2C(=O)O[C@H]([C@H](C)C[C@@H]2CC[C@@H](O)[C@H](OC)C2)CC(=O)[C@H](C)/C=C(\C)[C@@H](O)[C@@H](OC)C(=O)[C@H](C)C[C@H](C)/C=C/C=C/C=C/1C [Rapamycin],"Score of kidney lesion subtypes (cystic, pre-papillary, papillary, solid)","[4]; 13 months, in words, no statistics",reduced the score of all subtypes of kidney lesions
same,Tumor score per kidney (ave. ± Std. Err.),[4]; analysis at 13 months,0.83 ± .018
same,Tumor score per kidney (ave. ± Std. Err.),"[4]; analysis at 13 months, listed as rapamycin",0.83 ± 0.18
same,Percent decrease in tumor score per kidney with treatment,"[4]; vs untreated, analysis at 13 months, daily treatment 6–7 and 12–13 months, weekly rapamycin 16 mg/kg 7–12 months",94.5%
same,Weight at Necropsy,[5],35.6 ± 0.6 g
same,Weight at Start,[5],36.0 ± 0.6 g
same,Weight gain,[5],-0.4 ± 0.6 g
same,"Weight gain, in words",[5],failed to gain weight
same,Trough levels for standard rapamycin dosing in humans,[6],3 to 20 ng/mL
same,concentration at 24 h,"in vivo; CD-1 nude, tumor",258 ± 91.6 ng/mL
same,concentration at 24 h,"in vivo; nude, whole blood",42.9 ± 24.7 ng/mL
same,"Day 16, average tumor volume",[7]; mean ± standard error,284 ± 52 mm^3
same,"Day 43, average tumor volume",[7]; mean ± standard error,2499 ± 222 mm^3
same,"Day 44, average tumor volume",[7]; mean ± standard error,2607 ± 247 mm^3
same,Median survival,"[7]; time to tumor volume ~3000 mm^3, start at ~150 mm^3",46 days
same,"Day 26, average tumor volume",[1]; [8],544 ± 110 mm^3
same,"Day 42, average tumor volume",[1]; [8],1784 ± 643 mm^3
same,Median survival,[1],41.5 days
CNC(=O)c1cc(Oc2ccc(NC(=O)Nc3ccc(Cl)c(C(F)(F)F)c3)cc2)ccn1 [Sorafenib],Effect on the metabolism of rapamycin (rapamycin levels in combination cohorts),[3],did not significantly affect the metabolism of rapamycin
same,"Day 16, average tumor volume",[7]; mean ± standard error,2209 ± 499 mm^3
same,"Efficacy on tumor growth and survival, in words",[7],not effective
